Test results: patent US12466821B2 (Novartis AG, priority 2018, dated 2025)

Key:
[1] = biological target: human CMV DNA polymerase UL54 (Human cytomegalovirus (strain AD169) (HHV-5) (Human herpesvirus 5), UniProt P08546); test: CMV polymerase biochemical assay (molecular beacon-based)
Experimental: (§1) Both human CMV DNA polymerase UL54 and human HSV DNA polymerase UL30 were produced as N-terminal MBP fusion of the full length, wild type recombinant proteins in order to enhance soluble expression in insect cell expression system. The proteins were expressed in sf9 insect cells via baculovirus transduction and cells were harvested after 48 hours. The soluble proteins were purified using the standard Ni-IMAC purification strategy via the N-terminal hexa-Histidine tag, followed by heparin affinity chromatography. Both of the final MBP fusion proteins were more than 90% pure and the yield of UL54 was up to 1.8 mg per liter culture while UL30 was up to 15 mg per liter culture. All purification steps were performed on ice, with buffers chilled on ice and FPLC fraction collectors set at 6° C. […] UL30 protein was stored in buffer containing 20 mM HEPES, pH7.0, 420 mM NaCl, 20% glycerol, 6 mM Imidazole, and 0.8 mM DTT at−80° C.
(§2) DNA polymerase activity was measured using a molecular beacon-based assay, as described in Ma et. al.
(§3) 100 pM CMV polymerase or 625 pM HSV polymerase was added to a buffer containing 20 mM Tris, pH=7.5, 100 mM NaCl, 10 mM MgCl2, 0.01% Tween-20, 0.5 mM EDTA, 10% Sucrose and 1 mM DTT. The inhibitor was pre-incubated with the polymerase for 30 minutes at room temperature. Reactions were initiated by the addition of a mixture containing 1.25 uM dATP, 1.25 uM dCTP, 1.25 uM dTTP, 1.25 uM dGTP, 200 nM Primer B (5′-GAC GGG AAG-3′5′-GAC GGG AAG-3′) and 100 nM molecular beacon (5′-5,6-FAM-CCTCTCCGTGTCTTGTACTTCCCGTCAGAGAGG-BHQ1-3′). For human CMV polymerase the reactions were incubated for 60 minutes at room temperature. For HSV polymerase the reactions were incubated for 20 minutes at room temperature. The reactions were then read on a Perkin-Elmer EnVision 2101 reader (fluorescence) using an excitation of 480 nm and emission of 535 nm. 1050s were determined using an internal Novartis software (Helios).
as §3, with “nm.” for “nm. 1050s were determined using an internal Novartis software (Helios).”

[2] = biological target: human HSV DNA polymerase UL30 (Human herpesvirus 1 (strain 17) (HHV-1) (Human herpes simplex virus 1), UniProt P04293); test: HSV polymerase biochemical assay (molecular beacon-based)
Experimental: as §1, §2, §3
as §3, with “nm.” for “nm. 1050s were determined using an internal Novartis software (Helios).”

[3] = tested on: Luciferase-encoding HCMV, AD169 strain; test: CMV Luciferase assay (cellular herpesvirus replication); type: cell-based; details: Human betaherpesvirus 5, AD169, read-out: CMV-Luc Cellular EC50
Experimental: For all viral assays, 10 mM DMSO stock compound solutions were serially diluted in DMSO at 3.16 fold dilutions in 96-well clear round bottom plates. Compounds were then diluted in assay media at 1:20 and subsequently 10 μL of these dilutions were added to cells for final compound concentrations ranging either from 0.0159 μM to 50 μM in 0.5% DMSO/assay media, or from 0.00318 to 10 μM in 0.5% DMSO/assay media.
The assay uses a Luciferase-encoding HCMV. Luciferase is expressed under the control of a late viral gene (pp28) promoter in the AD169 strain, so that expression of the reporter is dependent on viral DNA replication. Compounds that affect any stage from viral entry to DNA replication result in a change in luciferase levels.
Viral replication in the presence or absence of compounds was measured by luciferase activity according to the following procedure: Neo-natal normal human dermal fibroblast cells (NN-NHDF, from ATCC cat #201-010) were seeded at 9,000 cells/well in 96-well white solid bottom plate at 80 uL/well in assay media: 2% FBS, 4 mM GlutaMax® (Invitrogen cat #35050) in DMEM/high glucose/no glutamine/no phenol red media (Invitrogen cat #31053). After 2 hrs at 37° C., 10 uL of compound diluted in assay media or 5% DMSO (final 0.5% DMSO/well) was added and the plates returned to 37° C. One hour later, 10 uL of virus diluted in assay media was added at a final Multiplicity of infection (MOI) of 1. Plates were incubated at 37° C. for 72 hrs. At 72 hours post-infection (hpi), plates were equilibrated to room temperature. After 25 min, 100 uL Renilla-Glo® Luciferase Assay Reagent (Promega cat # E2750) was added to each well and incubated for 10 min. Plates were covered to protect from light. Luminescence was measured on the PHERAstar FS®.
The following controls were included in the data analysis: No virus, no compound (0.5% DMSO)=IC (maximal inhibitory control); Virus, no compound (0.5% DMSO)=NC (neutral control). Data were analyzed using an internal Novartis software (Helios). The means of the controls (NC, IC) were used to normalize the results to a % scale using the formula: % Control=100−(100*(Sample value−NC)/(IC−NC)).
For each compound, the software derived an EC50 using a 4-parameter logistical model.

| Compound | IC50 [1] [nM] | IC50 [2] [nM] | EC50 [3] [nM] |
| --- | --- | --- | --- |
| O=C(NCc1ccc(F)c(F)c1)c1ccc2n(c1=O)CCN(CC1(S(=O)(=O)C3CC3)CC1)C2=O [Example 3-3] | 7.9 | 149 | 64 |
| COc1cc(CNC(=O)c2ccc3n(c2=O)CCN(CC2(S(=O)(=O)C4CC4)CC2)C3=O)ccc1Cl [Example 3-5] | 2 | 117 | 211 |
| CC(CCO)S(=O)(=O)C1(CN2CCn3c(ccc(C(=O)NCc4ccc(C#N)cc4)c3=O)C2=O)CC1 (stereo not drawn) [Example 5, N-(4-cyanobenzyl)-2-((1-((4-hydroxybutan-2-yl)sulfonyl)cyclopropyl)methyl)-1,6-dioxo-2,3,4,6-tetrahydro-1H-pyrido[1,2-a]pyrazine-7-carboxamide] | 2.2 | 105 | 470 |
| O=C(NCc1ccc(Cl)cc1)c1ccc2n(c1=O)CCN(CC1(S(=O)(=O)C3(CO)CC3)CC1)C2=O [Example 10, N-(4-chlorobenzyl)-2-((1-((1-(hydroxymethyl)cyclopropyl)sulfonyl)cyclopropyl)methyl)-1,6-dioxo-2,3,4,6-tetrahydro-1H-pyrido[1,2-a]pyrazine-7-carboxamide] | 0.3 | 18.8 | 4.9 |
| N#Cc1ccc(CNC(=O)c2ccc3n(c2=O)CCN(CC2(S(=O)(=O)C4(CO)CC4)CC2)C3=O)cc1 [Example 11] | 0.4 | 24.3 | 26.7 |
| N#Cc1ccc(CNC(=O)c2ccc3n(c2=O)CCN(CC2(S(=O)(=O)C4(CO)CC4)CC2)C3=O)cc1F [Example 12] | 0.4 | 23.5 | 19.7 |
| N#Cc1ccc(CNC(=O)c2ccc3n(c2=O)CCN(CC2(S(=O)(=O)C4(CF)CC4)CC2)C3=O)cc1 [Example 13] | 0.4 | 28.3 | 19.3 |
| N#Cc1ccc(CNC(=O)c2ccc3n(c2=O)CCN(CC2(S(=O)(=O)C4(CF)CC4)CC2)C3=O)cc1F [Example 14] | 0.3 | 27.9 | 10 |
| COCC1(S(=O)(=O)C2(CN3CCn4c(ccc(C(=O)NCc5ccc(C#N)cc5)c4=O)C3=O)CC2)CC1 [Example 15] | 0.7 | 26 | 30.2 |
| N#Cc1ccc(CNC(=O)c2ccc3n(c2=O)CCN(CC2(S(=O)(=O)C4CNC4)CC2)C3=O)cc1F [Example 16, 2-((1-(azetidin-3-ylsulfonyl)cyclopropyl)methyl)-N-(4-cyano-3-fluorobenzyl)-1,6-dioxo-2,3,4,6-tetrahydro-1H-pyrido[1,2-a]pyrazine-7-carboxamide] | 6.1 | 285 | 3420 |
| CN1CC(S(=O)(=O)C2(CN3CCn4c(ccc(C(=O)NCc5ccc(C#N)c(F)c5)c4=O)C3=O)CC2)C1 [Example 17, N-(4-cyano-3-fluorobenzyl)-2-((1-((1-methylazetidin-3-yl)sulfonyl)cyclopropyl)methyl)-1,6-dioxo-2,3,4,6-tetrahydro-1H-pyrido[1,2-a]pyrazine-7-carboxamide] | 14.7 | 380 | 905 |
| N#Cc1ccc(CNC(=O)c2ccc3n(c2=O)CCN(CC2(S(=O)(=O)C4CNC4)CC2)C3=O)cc1 [Example 18] | 4.2 | 161 | 3000 |
| O=C(NCc1ccc(Cl)cc1)c1ccc2n(c1=O)CCN(CC1(S(=O)(=O)C3CNC3)CC1)C2=O [Example 19] | 3.9 | 149 | 538 |
| CN1CC(S(=O)(=O)C2(CN3CCn4c(ccc(C(=O)NCc5ccc(C#N)cc5)c4=O)C3=O)CC2)C1 [Example 20] | 13.2 | 319 | 1500 |
| N#Cc1ccc(CNC(=O)c2ccc3n(c2=O)CCN(CC2(S(=O)(=O)C4CCCC4)CC2)C3=O)cc1F [Example 21] | 0.8 | 35.4 | 58 |
| N#Cc1ccc(CNC(=O)c2ccc3n(c2=O)CCN(CC2(S(=O)(=O)C4CCCC4)CC2)C3=O)cc1 [Example 22] | 1.9 | 56.3 | 88.8 |
| N#Cc1ccc(CNC(=O)c2ccc3n(c2=O)CCN(CC2(S(=O)(=O)CCCO)CC2)C3=O)cc1 [Example 24] | 4.7 | 168 | 832 |
| O=C(NCc1ccc(Cl)cc1)c1ccc2n(c1=O)CCN(CC1(S(=O)(=O)CCCO)CC1)C2=O [Example 25] | 2.8 | 80.8 | 88.9 |
| CC(C)(C)S(=O)(=O)C1(CN2CCn3c(ccc(C(=O)NCc4ccc(C#N)c(F)c4)c3=O)C2=O)CC1 [Example 26] | 0.6 | 45.5 | 8.9 |
| CC(C)(C)S(=O)(=O)C1(CN2CCn3c(ccc(C(=O)NCc4ccc(C#N)cc4)c3=O)C2=O)CC1 [Example 27] | 0.3 | 25.2 | 6.8 |
| N#Cc1ccc(CNC(=O)c2ccc3n(c2=O)CCN(CC2(S(=O)(=O)C4COC4)CC2)C3=O)cc1 [Example 28] | 2.7 | 68.7 | 116 |
| N#Cc1ccc(CNC(=O)c2ccc3n(c2=O)CCN(CC2(S(=O)(=O)C4COC4)CC2)C3=O)cc1F [Example 29] | 1.8 | 63.5 | 86.4 |
| O=C(NCc1ccc(Cl)cc1)c1ccc2n(c1=O)CCN(CC1(S(=O)(=O)C3COC3)CC1)C2=O [Example 30] | 1.5 | 38 | 36.3 |
| CC(C)S(=O)(=O)C1(CN2CCn3c(ccc(C(=O)NCc4ccc(Cl)cc4)c3=O)C2=O)CC1 [Example 31] | 0.9 | 30.6 | 12.4 |
| CC(C)S(=O)(=O)C1(CN2CCn3c(ccc(C(=O)NCc4ccc(C#N)cc4)c3=O)C2=O)CC1 [Example 32] | 1.6 | 49.5 | 52 |
| CC(C)S(=O)(=O)C1(CN2CCn3c(ccc(C(=O)NCc4ccc(C#N)c(F)c4)c3=O)C2=O)CC1 [Example 33] | 1 | 48.2 | 33.1 |
| CCS(=O)(=O)C1(CN2CCn3c(ccc(C(=O)NCc4ccc(C#N)c(F)c4)c3=O)C2=O)CC1 [Example 34] | 1.6 | 69.5 | 41.2 |
